Measured values taken from PMC5500888, “Structural insights into the mechanism of the membrane integral N-acyltransferase step in bacterial lipoprotein synthesis” (Nature Communications, 2017).

Assays:
LntEco = target: T1, LntEco (Escherichia coli, UniProt P23930); assay: TLC with fluorescence of lyso-NBD-PE formed; assay type: biochemical; conditions: labelled compound; NBD-PE 500 uM; co-substrate FSL-1 150 uM; 8 uM enzyme; 50 mM Tris-HCl pH 7.5, 150 mM NaCl, 1 mM TCEP, 0.02% LMNG; 37 C
T1 construct: gene lnt; full-length membrane enzyme, N-terminal thrombin-cleavable His6-tag (pET28a, synthetic gene), expressed in E. coli C43(DE3), purified in LMNG; tag cleavage not described

LntPae = target: T2, LntPae (Pseudomonas aeruginosa, UniProt Q9ZI86); assay: SDS-PAGE band shift of FSL-1-biotin with western blot; assay type: biochemical; conditions: acyl donor 500 uM; co-substrate FSL-1-biotin 2.5-5 uM; 20 nM enzyme; 0.1% Triton X-100; pH 7.2 or 6.5; 37 C
T2 construct: gene lnt; full-length membrane enzyme, N-terminal thrombin-cleavable His6-tag (pET28a, synthetic gene), expressed in E. coli C41(DE3), purified in LMNG; tag cleavage not described
T2 sequence (Q9ZI86 1-511): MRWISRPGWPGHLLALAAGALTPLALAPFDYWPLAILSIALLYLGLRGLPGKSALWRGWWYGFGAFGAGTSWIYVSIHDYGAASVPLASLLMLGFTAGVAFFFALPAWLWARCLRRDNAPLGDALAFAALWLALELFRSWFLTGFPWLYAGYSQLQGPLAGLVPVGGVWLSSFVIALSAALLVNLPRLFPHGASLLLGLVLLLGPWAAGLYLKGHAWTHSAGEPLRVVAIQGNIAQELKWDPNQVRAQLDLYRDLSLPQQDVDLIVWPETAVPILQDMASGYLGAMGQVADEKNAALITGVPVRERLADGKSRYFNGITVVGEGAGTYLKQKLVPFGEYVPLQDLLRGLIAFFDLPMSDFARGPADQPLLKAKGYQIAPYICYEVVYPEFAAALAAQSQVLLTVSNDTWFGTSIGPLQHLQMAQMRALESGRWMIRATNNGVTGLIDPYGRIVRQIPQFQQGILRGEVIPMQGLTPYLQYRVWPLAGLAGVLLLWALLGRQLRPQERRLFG

Row | SMILES | TLC with fluorescence of lyso-NBD-PE formed (LntEco) | SDS-PAGE band shift of FSL-1-biotin with western blot (LntPae)
1 | CCCCCCCC/C=C\CCCCCCCC(=O)OC[C@H](COP(=O)(O)OCCN)OC(=O)CCCCCCCCCCCNc1ccc([N+](=O)[O-])c2nonc12 [NBD-PE] | Time course of lyso-PE production catalysed by LntEco | 
2 | CCCCCCCC/C=C\CCCCCCCC(=O)OC[C@H](COP(=O)(O)OCC(O)CO)OC(=O)CCCCCCC/C=C\CCCCCCCC (some centres unmarked) [DOPG] |  | When DOPE was replaced with DOPG or DOPC, the product was formed much less efficiently
